Experimental data published in ChEMBL document CHEMBL3046026, “Evaluation of the curative and protectant activity of fungicides and fungicide-adjuvant mixtures on Phomopsis cane and leaf spot of grape: A controlled environment study” (2007).
The source made the active and inactive calls. The calls are words filed in the database; no cut-off is given here.

Columns and labels:
[1] = tested on: Diaporthe ampelina; experiment: Antifungal activity against Diaporthe ampelina infected grape plant assessed as disease severity at internodes at 0.5 kg/ha incubated for 24 hr prior to treatment with 20 hr wetness period followed by 4 hr drying period measured after 4 weeks in presence of regulaid (reference value: 3.2%); type: functional
[2] = tested on: Diaporthe ampelina; experiment: Antifungal activity against Diaporthe ampelina infected grape plant assessed as disease severity at internodes at 0.12 kg a.i./ha treated 3 to 6 hr prior to inoculation followed by 24 hr wetness period measured after 4 weeks in presence of regulaid (reference value: 2.9%); type: functional
[3] = tested on: Diaporthe ampelina; experiment: Antifungal activity against Diaporthe ampelina infected grape plant assessed as decrease in lesions on leaf at 0.12 kg a.i./ha treated 3 to 6 hr prior to inoculation followed by 24 hr wetness period measured after 4 weeks relative to control in presence of regulaid; type: functional, organism-based
[4] = tested on: Diaporthe ampelina; experiment: Antifungal activity against Diaporthe ampelina infected grape plant assessed as decrease in lesions on leaf at 0.12 kg a.i./ha incubated for 20 hr prior to treatment with 16 hr wetness period and 4 hr drying time measured after 4 weeks relative to control in presence of regulaid; type: functional, organism-based
[5] = tested on: Diaporthe ampelina; experiment: Antifungal activity against Diaporthe ampelina infected grape plant assessed as disease severity at internodes at 0.12 kg a.i./ha incubated for 24 hr prior to treatment with 20 hr wetness period followed by 4 hr drying period measured after 4 weeks in presence of regulaid (reference value: 4.7%); type: functional
[6] = tested on: Diaporthe ampelina; experiment: Antifungal activity against Diaporthe ampelina infected grape plant assessed as decrease in lesions on leaf at 0.12 kg a.i./ha incubated for 48 hr prior to treatment with 24 hr wetness period followed by 24 hr of drying period measured after 4 weeks relative to control in presence of regulaid; type: functional, organism-based
[7] = tested on: Diaporthe ampelina; experiment: Antifungal activity against Diaporthe ampelina infected grape plant assessed as disease severity at internodes at 0.12 kg a.i./ha incubated for 20 hr prior to treatment with 16 hr wetness period and 4 hr drying time measured after 4 weeks in presence of regulaid (reference value: 7.3%); type: functional
[8] = tested on: Diaporthe ampelina; experiment: Antifungal activity against Diaporthe ampelina infected grape plant assessed as re-isolation of mycelium from infected vines at 0.12 kg a.i./ha treated for weeks in presence of regulaid followed by inoculation on medium measured after 72 hr (reference value: 62.5%); type: functional
[9] = tested on: Diaporthe ampelina; experiment: Antifungal activity against Diaporthe ampelina infected grape plant assessed as disease severity at internodes at 0.12 kg a.i./ha treated 3 to 6 hr prior to inoculation followed by 24 hr wetness period measured after 4 weeks (reference value: 2.6%); type: functional
[10] = tested on: Diaporthe ampelina; experiment: Antifungal activity against Diaporthe ampelina infected grape plant assessed as decrease in lesions on leaf at 0.12 kg a.i./ha treated 3 to 6 hr prior to inoculation followed by 24 hr wetness period measured after 4 weeks relative to control; type: functional, organism-based
[11] = tested on: Diaporthe ampelina; experiment: (§1) Antifungal activity against Diaporthe ampelina infected grape plant assessed as disease severity at internodes at 0.12 kg a.i./ha incubated for 48 hr prior to treatment with 24 hr wetness period followed by 24 hr of drying period measured after 4 weeks in presence of regulaid (reference value: 12.2%); type: functional
[12] = tested on: Diaporthe ampelina; experiment: Antifungal activity against Diaporthe ampelina infected grape plant assessed as decrease in lesions on leaf at 0.12 kg a.i./ha incubated for 24 hr prior to treatment with 20 hr wetness period followed by 4 hr drying period measured after 4 weeks relative to control in presence of regulaid; type: functional, organism-based
[13] = tested on: Diaporthe ampelina; experiment: Antifungal activity against Diaporthe ampelina infected grape plant assessed as decrease in lesions on leaf at 0.5 kg/ha incubated for 24 hr prior to treatment with 20 hr wetness period followed by 4 hr drying period measured after 4 weeks relative to control in presence of regulaid; type: functional, organism-based
[14] = tested on: Diaporthe ampelina; experiment: Antifungal activity against Diaporthe ampelina infected grape plant assessed as disease severity at internodes at 2.6 kg/ha incubated for 24 hr prior to treatment with 20 hr wetness period followed by 4 hr drying period measured after 4 weeks in presence of stylet oil(reference value: 3.2%); type: functional
[15] = tested on: Diaporthe ampelina; experiment: Antifungal activity against Diaporthe ampelina infected grape plant assessed as disease severity at internodes at 1.19 kg a.i./ha incubated for 24 hr prior to treatment with 20 hr wetness period followed by 4 hr drying period measured after 4 weeks in presence of stylet oil(reference value: 4.7%); type: functional
[16] = tested on: Diaporthe ampelina; experiment: Antifungal activity against Diaporthe ampelina infected grape plant assessed as decrease in lesions on leaf at 1.19 kg a.i./ha incubated for 24 hr prior to treatment with 20 hr wetness period followed by 4 hr drying period measured after 4 weeks relative to control in presence of stylet oil; type: functional, organism-based
[17] = tested on: Diaporthe ampelina; experiment: Antifungal activity against Diaporthe ampelina infected grape plant assessed as decrease in lesions on leaf at 2.6 kg/ha incubated for 24 hr prior to treatment with 20 hr wetness period followed by 4 hr drying period measured after 4 weeks relative to control in presence of stylet oil; type: functional, organism-based
[18] = tested on: Diaporthe ampelina; experiment: Antifungal activity against Diaporthe ampelina infected grape plant assessed as decrease in lesions on leaf at 1.19 kg a.i./ha treated 3 to 6 hr prior to inoculation followed by 24 hr wetness period measured after 4 weeks relative to control in presence of regulaid; type: functional, organism-based
[19] = tested on: Diaporthe ampelina; experiment: as §1, with “1.19” for “0.12”, “stylet oil” for “regulaid”; type: functional
[20] = tested on: Diaporthe ampelina; experiment: Antifungal activity against Diaporthe ampelina infected grape plant assessed as decrease in lesions on leaf at 1.19 kg a.i./ha incubated for 20 hr prior to treatment with 16 hr wetness period and 4 hr drying time measured after 4 weeks relative to control in presence of stylet oil; type: functional, organism-based
[21] = tested on: Diaporthe ampelina; experiment: Antifungal activity against Diaporthe ampelina infected grape plant assessed as decrease in lesions on leaf at 1.19 kg a.i./ha incubated for 20 hr prior to treatment with 16 hr wetness period and 4 hr drying time measured after 4 weeks relative to control in presence of regulaid; type: functional, organism-based
[22] = tested on: Diaporthe ampelina; experiment: Antifungal activity against Diaporthe ampelina infected grape plant assessed as re-isolation of mycelium from infected vines at 1.19 kg a.i./ha treated for weeks in presence of stylet oil followed by inoculation on medium measured after 72 hr (reference value: 62.5%); type: functional
[23] = tested on: Diaporthe ampelina; experiment: as §1, with “1.19” for “0.12”; type: functional
[24] = tested on: Diaporthe ampelina; experiment: Antifungal activity against Diaporthe ampelina infected grape plant assessed as decrease in lesions on leaf at 1.19 kg a.i./ha treated 3 to 6 hr prior to inoculation followed by 24 hr wetness period measured after 4 weeks relative to control in presence of stylet oil; type: functional, organism-based
[25] = tested on: Diaporthe ampelina; experiment: Antifungal activity against Diaporthe ampelina infected grape plant assessed as disease severity at internodes at 1.19 kg a.i./ha incubated for 24 hr prior to treatment with 20 hr wetness period followed by 4 hr drying period measured after 4 weeks in presence of regulaid (reference value: 4.7%); type: functional
[26] = tested on: Diaporthe ampelina; experiment: Antifungal activity against Diaporthe ampelina infected grape plant assessed as disease severity at internodes at 1.19 kg a.i./ha incubated for 20 hr prior to treatment with 16 hr wetness period and 4 hr drying time measured after 4 weeks in presence of regulaid (reference value: 7.3%); type: functional
[27] = tested on: Diaporthe ampelina; experiment: Antifungal activity against Diaporthe ampelina infected grape plant assessed as disease severity at internodes at 1.19 kg a.i./ha treated 3 to 6 hr prior to inoculation followed by 24 hr wetness period measured after 4 weeks (reference value: 2.6%); type: functional
[28] = tested on: Diaporthe ampelina; experiment: Antifungal activity against Diaporthe ampelina infected grape plant assessed as disease severity at internodes at 1.19 kg a.i./ha treated 3 to 6 hr prior to inoculation followed by 24 hr wetness period measured after 4 weeks in presence of stylet-oil(reference value: 2.9%); type: functional
[29] = tested on: Diaporthe ampelina; experiment: Antifungal activity against Diaporthe ampelina infected grape plant assessed as disease severity at internodes at 1.19 kg a.i./ha treated 3 to 6 hr prior to inoculation followed by 24 hr wetness period measured after 4 weeks in presence of regulaid (reference value: 2.9%); type: functional
[30] = tested on: Diaporthe ampelina; experiment: Antifungal activity against Diaporthe ampelina infected grape plant assessed as disease severity at internodes at 1.19 kg a.i./ha incubated for 20 hr prior to treatment with 16 hr wetness period and 4 hr drying time measured after 4 weeks in presence of stylet oil(reference value: 7.3%); type: functional
[31] = tested on: Diaporthe ampelina; experiment: Antifungal activity against Diaporthe ampelina infected grape plant assessed as decrease in lesions on leaf at 2.6 kg/ha incubated for 24 hr prior to treatment with 20 hr wetness period followed by 4 hr drying period measured after 4 weeks relative to control in presence of regulaid; type: functional, organism-based
[32] = tested on: Diaporthe ampelina; experiment: Antifungal activity against Diaporthe ampelina infected grape plant assessed as decrease in lesions on leaf at 1.19 kg a.i./ha incubated for 48 hr prior to treatment with 24 hr wetness period followed by 24 hr of drying period measured after 4 weeks relative to control in presence of stylet oil; type: functional, organism-based
[33] = tested on: Diaporthe ampelina; experiment: Antifungal activity against Diaporthe ampelina infected grape plant assessed as disease severity at internodes at 2.6 kg/ha incubated for 24 hr prior to treatment with 20 hr wetness period followed by 4 hr drying period measured after 4 weeks in presence of regulaid (reference value: 3.2%); type: functional
[34] = tested on: Diaporthe ampelina; experiment: Antifungal activity against Diaporthe ampelina infected grape plant assessed as decrease in lesions on leaf at 1.19 kg a.i./ha incubated for 24 hr prior to treatment with 20 hr wetness period followed by 4 hr drying period measured after 4 weeks relative to control in presence of regulaid; type: functional, organism-based
[35] = tested on: Diaporthe ampelina; experiment: Antifungal activity against Diaporthe ampelina infected grape plant assessed as re-isolation of mycelium from infected vines at 1.19 kg a.i./ha treated for weeks in presence of regulaid followed by inoculation on medium measured after 72 hr (reference value: 62.5%); type: functional
[36] = tested on: Diaporthe ampelina; experiment: Antifungal activity against Diaporthe ampelina infected grape plant assessed as decrease in lesions on leaf at 1.19 kg a.i./ha incubated for 48 hr prior to treatment with 24 hr wetness period followed by 24 hr of drying period measured after 4 weeks relative to control in presence of regulaid; type: functional, organism-based
[37] = tested on: Diaporthe ampelina; experiment: Antifungal activity against Diaporthe ampelina infected grape plant assessed as decrease in lesions on leaf at 1.19 kg a.i./ha treated 3 to 6 hr prior to inoculation followed by 24 hr wetness period measured after 4 weeks relative to control; type: functional, organism-based

CCCCC(C#N)(Cn1cncn1)c1ccc(Cl)cc1 (configuration not stated) [MYCLOBUTANIL] was tested, and the Activity [1] was 3.1%, the Activity [2] was 0.1% and the Activity [3] was “inactive”. For the same compound, the Activity [4] was “inactive”, the Activity [5] was 3.5% and the Activity [6] was “inactive”. For the same compound, the Activity [7] was 5.2%, the Activity [8] was 68.7% and the Activity [9] was 0.6%. For the same compound, the Activity [10] was “inactive”, the Activity [11] was 6.7% and the Activity [12] was “inactive”. The Activity [13] was “inactive”.
For COC(=O)NC(=S)Nc1ccccc1NC(=S)NC(=O)OC [THIOPHANATE METHYL], the Activity [14] was 1.8%, the Activity [15] was 0.7% and the Activity [16] was “inactive”. For the same compound, the Activity [17] was “inactive”, the Activity [18] was “Active” and the Activity [19] was 5.1%. The Activity [20] was “inactive”, the Activity [21] was “inactive” and the Activity [22] was 41.1%. For the same compound, the Activity [23] was 3.8%, the Activity [24] was “Active” and the Activity [25] was 3.3%. It also gave an Activity [26] of 4%, an Activity [27] of 0.1% and an Activity [28] of 2%. For the same compound, the Activity [29] was 1%, the Activity [30] was 7.5% and the Activity [31] was “inactive”. For the same compound, the Activity [32] was “inactive”, the Activity [33] was 0.7% and the Activity [34] was “inactive”. For the same compound, the Activity [35] was 37.1%, the Activity [36] was “inactive” and the Activity [37] was “Active”.
